Measured values from patent US11674140B2, “Compositions and methods for treating facioscapulohumeral dystrophy” (THE CHILDREN'S MEDICAL CENTER CORPORATION, priority 2017, dated 2023).
“Also recorded” adds a separate entry of the source.

Experiments:
DUX4 inducible cell line = assay: Cell death assay: caspase fluorescence (FITC) in DUX4 inducible cell line after doxycycline; type: cell-based; details: after 48 hours of doxycycline treatment
Description: FIG. 17A includes a series of micrographs. Fluorescence from labeled caspase is visible (fluorescein isothiocynate (FITC)) in a DUX4 inducible cell line after 48 hours of doxy cy cline treatment.
Cell death assay were then used to validate single knock-outs cell lines (FIGS. 17A-17C).

[1] = test system: FSHD biomarkers MBDL3L3, TRIM42 and ZSCAN4; assay: Quantitative real-time PCR of FSHD biomarkers in patient myotubes; type: cell-based, human
Description: One common way to test potential therapies for FSHD is to measure a reduction in FSHD biomarker genes (FIG. 16B). […] Briefly, patient primary myoblasts (17A and 16A) were placed in differentiation media. At day four, drug compounds were added, and myotubes were harvested 24 hours later. RNA extraction and cDNA synthesis was performed. Quantitative real-time PCR for FSHD biomarkers levels of MBDL3L3, TRIM42 and ZSCAN4 was performed. Results indicated a significant reduction in biomarker levels for the majority of drugs tested.

DUX4-injected zebrafish = DUX4-injected zebrafish model of FSHD; type: in vivo; details: drug 24 hr post-injection; day 7; compared to DUX4-injected no drug control group
From the text: FSHD has proven to be a difficult disease to model in animals given the primate-specific origins of DUX4, its sporadic activation and mosaic expression, as well as the complex epigenetic components associated with the disease. Our published DUX4 zebrafish model was the first to recapitulate the muscle-eye-ear combination of phenotypes described in human FSHD (FIGS. 1N-A, 1N-B, 1N-C). […] These established DUX4 models of FSHD provide for functional follow-up experiments for candidate genes identified in CRISPR screens.
Drugs that show efficacy in vitro can be tested in a zebrafish model of FSHD. […] After injecting DUX4 into zebrafish, the test subjects were then treated with the four drug compounds 24 hr post-injection. Injected fish were categorized into affected or unaffected groups based on whole-body phenotype (FIG. 18A).

DUX4 toxicity = assay: Caspase 3/7 activity assay (luciferase read-out) of DUX4-induced cell death; type: cell-based, human
From the text: FIGS. 14A and 14B illustrate a method for assaying cell death. FIG. 14A is a schematic diagram showing a method for assaying cell death by measuring Caspase 3/7 activity using a luciferase read-out.
FIG. 14B presents graphical data generated from the doxycycline-inducible assay.
The DUX4 gene encodes a transcription factor whose expression is rare, but extremely toxic. DUX4 transcription factor controls more than 100 early developmental genes. Misexpression of DUX4 is hypothesized to induce inappropriate expression of downstream genes to cause disease pathogenesis. […] Non-manifesting carriers of FSHD alleles who are found to express DUX4, point to the existence of genetic modifiers that may act to suppress DUX4 toxicity. The clinical, histopathological and molecular evidence for asymptomatic/non-manifesting carriers of FSHD is provided at FIGS. 1A-1F. As reported herein below, a genome-wide CRISPR loss-of-function library was used to identify genes that modulate DUX4 induced toxicity and act as genetic modifiers of FSHD (FIG. 1M). This powerful resource has enabled the assessment of the impact of all loss-of-function gene edits across the entire genome. This approach permitted the isolation of genes that influence survivability of DUX4 toxicity. These genes were validated in vitro by generation of individual knock-out lines, using a Caspase-3/7 assay to quantify reduced DUX4-induced apoptosis, and using inhibitor compounds to mimic gene knock-outs. These genes are also being evaluated in vivo.
The abundance of sgRNAs in each of the LOF cell lines was measured (FIG. 12). Each sgRNA is specific to the gene. Single gene knock-outs were generated using a lenti-CRISPR plasmid. […] To determine whether the results observed with Hif1a knockout could be recapitulated using an inhibitor of Hif1a, experiments with small compound inhibitors were carried out (FIGS. 15A, 15B, 16C, 16D). […] Herbimycin A is a benzoquinone drug (used for anti-cancer treatment) that binds and inhibits heat shock protein 90 (HSP90) chaperone (tyrosine kinase inhibitor) and is known to deplete dephosphorylated HIF1a. […]

SMILES | caspase fluorescence (DUX4 inducible cell line) | efficacy in patient cell lines [1] | percentage of affected fish (whole-body phenotype) (DUX4-injected zebrafish) | suppression of DUX4 toxicity (DUX4 toxicity; 20 uM) | efficacy in vitro measured by caspase 3/7 activity (DUX4 toxicity) | FSHD biomarker levels (MBDL3L3, TRIM42, ZSCAN4) ([1]; patient primary myoblasts 16A and 17A, drug added at day four of differentiation, harvested 24 hours later)
CO[C@H]1[C@@H](OC)C[C@H](C)[C@@H](OC)C2=CC(=O)C=C(NC(=O)/C(C)=C/C=C\[C@H](OC)[C@@H](OC(N)=O)/C(C)=C/[C@@H]1C)C2=O [Herbimycin A] | reduced caspase fluorescence | efficacy | significantly reduced; also recorded: significantly decreased percentage of affected fish | good suppression of DUX4 toxicity | showed efficacy in vitro | –
COC(=O)c1ccc(O)c(NC(=O)COc2ccc(C34CC5CC(CC(C5)C3)C4)cc2)c1 [Hif1a inhibitor] | – | – | – | – | – | Dose-response reduction of biomarkers
O=c1cc(N2CCOCC2)oc2c(-c3ccccc3)cccc12 [LY294002, Ly294002] | reduced caspase fluorescence | efficacy | – | – | showed efficacy in vitro | –
